Structures can show the parent of a compound that is named as a salt.
How the values were obtained:
[1] = test system: opioid receptors; conditions: after oral administration; cited from earlier work
[2] = in comparison to a 15 mg dose of hydrocodone
[3] = test system: mu over delta sites; conditions: cited from earlier work
[4] = hydrochloride salt; cited from earlier work

Row | Compound | Calculated Dose (equianalgesic dose) [2] [mg] | further results
1 | C[C@H]1[C@H]2Cc3ccc(O)cc3[C@]1(C)CCN2CC1CC1 [cyclazocine] |  | duration of effect [1]: ~24 h
2 | CCC(=O)C(CC(C)N(C)C)(c1ccccc1)c1ccccc1 (stereo not drawn) [Methadone] | 9.0 | 
3 | COc1ccc2c3c1OC1C(=O)CC[C@@]4(O)[C@@H](C2)N(C)CC[C@]314 (stereo partly drawn) [Oxycodone, 4,5-epoxy-14-hydroxy-3-methoxy-17-methylmorphinan-6-one] | 13.5 | 
4 | O=C1CC[C@@]2(O)[C@H]3Cc4ccc(O)c5c4[C@@]2(CCN3CC2CC2)[C@H]1O5 [naltrexone] |  | blocking action, mu over delta sites [3]: strong preferential blocking action against mu over delta sites
5 | COc1ccc2c3c1O[C@H]1[C@@H](O)C=C[C@H]4[C@@H](C2)N(C)CC[C@@]341 [Codeine] | 90.0 | 
6 | CN1CC[C@]23CCCC[C@H]2[C@H]1Cc1ccc(O)cc13 [Levorphanol] | 1.8 | 
7 | COc1ccc2c3c1OC1C(=O)CC[C@H]4[C@@H](C2)N(C)CC[C@]314 (stereo partly drawn) [Hydrocodone, 4,5-epoxy-3-methoxy-17-methylmorphinan-6-one] | 15.0 | 
8 | O=C1CC[C@@]2(O)[C@H]3Cc4ccc(O)c5c4[C@@]2(CCN3CC2CC2)[C@H]1O5 [hydrochloride salt of naltrexone, naltrexone] |  | solubility in water [4]: about 100 mg/cc
9 | Meperidine | 135.0 | 

Reference: patent publication US8685443B2, “Sequestering subunit and related compositions and methods” (Alpharma Pharmaceuticals LLC, priority 2002, dated 2014)
